# How the values were obtained:
# [1] = tested on: rice (Oryza sative, variety: Koshihikari); experiment: Paddy field treatment (Test Example 3), crop; format: in vivo, Oryza sativa; conditions: transplanted rice two-leaf period, water surface treatment 10th day after transplantation, 1 kg active ingredient per hectare, evaluated 21st day, lower index = higher safety
# Method: (§1) In the above evaluation criteria, the term “herbicidal effect” means evaluation to the objective weeds, and a higher index of the evaluation criteria means higher herbicidal effect on the objective weeds. On the other hand, a lower index of the evaluation criteria for the crops means higher safety to the crops. A plastic pot of 130 cm^2 was filled with paddy soil, and soil puddling was carried out to adjust the submerged depth to 4 cm. Then, seeds of Echinochloa crusgalli, Monochoria vaginalis, Ammannia multiflora and Scirpus juncoides were sowed, and rice (Oryza […], variety: Koshihikari) of two-leaf period was transplanted by 2 rice plants of 1 stub per pot at a depth of 3 cm. On the 10th day after the transplantation, a wettable powder composition was prepared in accordance with Formulation Example 1, diluted with water in such an amount that the amount of the active ingredient became 1 kg per hectare, and then dropped to diffuse on the water surface. On the 21st day after the dropping, observation and evaluation were carried out according to the aforesaid criteria.
# [2] = tested on: soybean (Glycine max); experiment: Upland soil treatment (Test Example 2), crop; format: in vivo; conditions: soil surface treatment next day after sowing, 1 kg active ingredient per hectare, evaluated 21st day, lower index = higher safety
# Source text: (§2) In the above evaluation criteria, the term “herbicidal effect” means evaluation to the objective weeds, and a higher index of the evaluation criteria means higher herbicidal effect on the objective weeds. On the other hand, a lower index of the evaluation criteria for the crops means higher safety to the crops. A plastic pot of 130 cm^2 was filled with upland soil. Then, seeds of weeds, namely, Setaria viridis, Digitaria adscendens, Chenopodium album and Stellaria media, and seeds of crops, namely, soybean (Glycine max) and wheat (Triticum aestivum), were sowed and covered with soil of about 1 cm thick. On the next day after the sowing, a wettable powder composition was prepared in accordance with Formulation Example 1, diluted with water in such an amount that the amount of the active ingredient became 1 kg per hectare, and then uniformly applied to the soil surface. On the 21st day after the application, observation and evaluation were carried out according to the aforesaid criteria.
# [3] = tested on: wheat (Triticum aestivum); experiment: Upland soil treatment (Test Example 2), crop; format: in vivo; conditions: soil surface treatment next day after sowing, 1 kg active ingredient per hectare, evaluated 21st day, lower index = higher safety
# Source text: as §2
# [4] = tested on: Echinochloa spp.; experiment: Paddy field treatment (Test Example 3); format: in vivo, Echinochloa crusgalli; conditions: paddy pot, submerged 4 cm, dropped on water surface 10th day after transplantation, 1 kg active ingredient per hectare, evaluated 21st day
# Method: as §1
# [5] = tested on: Scirpus juncoides; experiment: Paddy field treatment (Test Example 3); format: in vivo; conditions: paddy pot, submerged 4 cm, dropped on water surface 10th day after transplantation, 1 kg active ingredient per hectare, evaluated 21st day
# Method: as §1
# [6] = tested on: Ammannia multiflora; experiment: Paddy field treatment (Test Example 3); format: in vivo; conditions: paddy pot, submerged 4 cm, dropped on water surface 10th day after transplantation, 1 kg active ingredient per hectare, evaluated 21st day
# Method: as §1
# [7] = tested on: Monochoria vaginalis; experiment: Paddy field treatment (Test Example 3); format: in vivo; conditions: paddy pot, submerged 4 cm, dropped on water surface 10th day after transplantation, 1 kg active ingredient per hectare, evaluated 21st day
# Method: as §1
# [8] = tested on: Setaria viridis; experiment: Upland field foliage treatment (Test Example 1); format: in vivo; conditions: foliage treatment 14th day after sowing, wettable powder, 1 kg active ingredient per hectare, evaluated 21st day after application
# Source text: (§3) In the above evaluation criteria, the term “herbicidal effect” means evaluation to the objective weeds, and a higher index of the evaluation criteria means higher herbicidal effect on the objective weeds. On the other hand, a lower index of the evaluation criteria for the crops means higher safety to the crops. A plastic pot of 130 cm^2 was filled with upland soil. Then, seeds of weeds, namely, Setaria viridis, Digitaria adscendens, Chenopodium album and Stellaria media, and seeds of crops, namely, soybean (Glycine max) and wheat (Triticum aestivum), were sowed and covered with soil of about 1 cm thick. On the 14th day after the sowing, a wettable powder composition was prepared in accordance with Formulation Example 1, diluted with water in such an amount that the amount of the active ingredient became 1 kg per hectare, and then uniformly applied to the plant leaf surfaces. On the 21st day after the application, observation and evaluation were carried out according to the aforesaid criteria.
# [9] = tested on: Digitaria adscendens; experiment: Upland field foliage treatment (Test Example 1); format: in vivo; conditions: foliage treatment 14th day after sowing, wettable powder, 1 kg active ingredient per hectare, evaluated 21st day after application
# Source text: as §3
# [10] = tested on: Chenopodium album; experiment: Upland field foliage treatment (Test Example 1); format: in vivo; conditions: foliage treatment 14th day after sowing, wettable powder, 1 kg active ingredient per hectare, evaluated 21st day after application
# Source text: as §3
# [11] = tested on: Stellaria media; experiment: Upland field foliage treatment (Test Example 1); format: in vivo; conditions: foliage treatment 14th day after sowing, wettable powder, 1 kg active ingredient per hectare, evaluated 21st day after application
# Source text: as §3
# [12] = tested on: soybean (Glycine max); experiment: Upland field foliage treatment (Test Example 1), crop; format: in vivo; conditions: foliage treatment 14th day after sowing, 1 kg active ingredient per hectare, evaluated 21st day, lower index = higher safety
# Source text: as §3
# [13] = tested on: wheat (Triticum aestivum); experiment: as above; format: in vivo; conditions: foliage treatment 14th day after sowing, 1 kg active ingredient per hectare, evaluated 21st day, lower index = higher safety
# Source text: as §3
# [14] = tested on: Setaria viridis; experiment: Upland soil treatment (Test Example 2); format: in vivo; conditions: soil surface treatment next day after sowing, wettable powder, 1 kg active ingredient per hectare, evaluated 21st day after application
# Source text: as §2
# [15] = tested on: Digitaria adscendens; experiment: Upland soil treatment (Test Example 2); format: in vivo; conditions: soil surface treatment next day after sowing, wettable powder, 1 kg active ingredient per hectare, evaluated 21st day after application
# Source text: as §2
# [16] = tested on: Chenopodium album; experiment: Upland soil treatment (Test Example 2); format: in vivo; conditions: soil surface treatment next day after sowing, wettable powder, 1 kg active ingredient per hectare, evaluated 21st day after application
# Source text: as §2
# [17] = tested on: Stellaria media; experiment: Upland soil treatment (Test Example 2); format: in vivo; conditions: soil surface treatment next day after sowing, wettable powder, 1 kg active ingredient per hectare, evaluated 21st day after application
# Source text: as §2
SMILES,Herbicidal activity Oryza sativa [1],Herbicidal activity Glycine max [2],Herbicidal activity Triticum aestivum [3],Herbicidal activity Echinochloa spp. [4],Herbicidal activity Scirpus juncoides [5],Herbicidal activity Ammannia multiflora [6],Herbicidal activity Monochoria vaginalis [7],Herbicidal activity Setaria viridis [8],Herbicidal activity Digitaria adscendens [9],Herbicidal activity Chenopodium album [10],Herbicidal activity Stellaria media [11],Herbicidal activity Glycine max [12],Herbicidal activity Triticum aestivum [13],Herbicidal activity Setaria viridis [14],Herbicidal activity Digitaria adscendens [15],Herbicidal activity Chenopodium album [16],Herbicidal activity Stellaria media [17]
COC=C(Cn1nc(-c2ccc(Cl)c(Cl)c2)c(Cl)c1C)C(=O)OC [Compound 24],0 (herbicidal effect of not less than 0% by weight and less than 10% by weight),0 (herbicidal effect of not less than 0% by weight and less than 10% by weight),0 (herbicidal effect of not less than 0% by weight and less than 10% by weight),4 (herbicidal effect of not less than 70% by weight and less than 90% by weight),3 (herbicidal effect of not less than 50% by weight and less than 70% by weight),3 (herbicidal effect of not less than 50% by weight and less than 70% by weight),3 (herbicidal effect of not less than 50% by weight and less than 70% by weight),4 (herbicidal effect of not less than 70% by weight and less than 90% by weight),4 (herbicidal effect of not less than 70% by weight and less than 90% by weight),4 (herbicidal effect of not less than 70% by weight and less than 90% by weight),4 (herbicidal effect of not less than 70% by weight and less than 90% by weight),0 (herbicidal effect of not less than 0% by weight and less than 10% by weight),0 (herbicidal effect of not less than 0% by weight and less than 10% by weight),4 (herbicidal effect of not less than 70% by weight and less than 90% by weight),4 (herbicidal effect of not less than 70% by weight and less than 90% by weight),4 (herbicidal effect of not less than 70% by weight and less than 90% by weight),4 (herbicidal effect of not less than 70% by weight and less than 90% by weight)
COC=C(Cn1nc(-c2cc(C)ccc2C)cc1C)C(=O)OC [Compound 5],0 (herbicidal effect of not less than 0% by weight and less than 10% by weight),0 (herbicidal effect of not less than 0% by weight and less than 10% by weight),0 (herbicidal effect of not less than 0% by weight and less than 10% by weight),,3 (herbicidal effect of not less than 50% by weight and less than 70% by weight),3 (herbicidal effect of not less than 50% by weight and less than 70% by weight),5 (herbicidal effect of not less than 90% by weight),4 (herbicidal effect of not less than 70% by weight and less than 90% by weight),4 (herbicidal effect of not less than 70% by weight and less than 90% by weight),5 (herbicidal effect of not less than 90% by weight),4 (herbicidal effect of not less than 70% by weight and less than 90% by weight),0 (herbicidal effect of not less than 0% by weight and less than 10% by weight),0 (herbicidal effect of not less than 0% by weight and less than 10% by weight),4 (herbicidal effect of not less than 70% by weight and less than 90% by weight),5 (herbicidal effect of not less than 90% by weight),4 (herbicidal effect of not less than 70% by weight and less than 90% by weight),4 (herbicidal effect of not less than 70% by weight and less than 90% by weight)
